From US9657013B2, “Inhibitors of hepatitis B virus covalently closed circular DNA formation and their method of use” (priority 2012, dated 2017)

Tests used:
HBV Dp-rcDNA and cccDNA = assay: stability of HBV DP-rcDNA and cccDNA; assay type: cell-based, hepatitis B virus
HBV cccDNA = assay: cccDNA inhibition assay (Southern blot of Hirt DNA); assay type: cell-based, hepatitis B virus; conditions: for levels of HBV cccDNA and DP-rcDNA in cell cultures / EC50: HepDES19 cells; for levels of HBV cccDNA and DP-rcDNA in cell cultures: day 12, figure legend; for EC50: 288 h, harvested at day 12, read-out: EC50 of reduction of cccDNA
Method: Cell cultures: HepG2.2.15 cells were maintained in DMEM/F12 medium (Mediatech, Manassas, Va.) supplemented with 10% fetal bovine serum, 100 U/ml penicillin and 100 μg/ml streptomycin, plus 400 μg/ml G418. Tetracycline inducible HBV producer cells, specifically HepDE19 and HepDES19 cells, were maintained in the same way as HepG2.2.15, but with the addition of 1 μg/ml tetracycline (Guo, H., D. Jiang, T. Zhou, A. Cuconati, T. M. Block, and J. T. Guo. 2007). To initiate HBV replication and cccDNA formation in HepDE19 and HepDES19 cells, tetracycline was withdrawn from the culture medium and the cells were cultured for the indicated time period.
Viral nucleic acid analysis: Total cellular RNA was extracted with TRIzol reagent (Invitrogen, Grand Island, N.Y.) by following manufacturer's directions. Ten microgram of total cellular RNA was resolved in 1.5% agarose gel containing 2.2 M formaldehyde and transferred onto Hybond-XL membrane (GE Healthcare, Piscataway, N.J.) in 20×SSC buffer. Intracellular hepadnaviral core DNA and cccDNA (Hirt DNA) were extracted as described previously (Guo, H., D. Jiang, T. Zhou, A. Cuconati, T. M. Block, and J. T. Guo. 2007. Guo, H., D. Jiang, T. Zhou, A. Cuconati, T. M. Block, and J. T. Guo. 2007. Guo, H., R. Mao, T. M. Block, and J. T. Guo. 2010. Guo, H., W. S. Mason, C. E. Aldrich, J. R. Saputelli, D. S. Miller, A. R. Jilbert, and J. E. Newbold. 2005). Half of the DNA samples recovered from one well of a 6-well-plate were resolved by electrophoresis into a 1.2% agarose gel and blotted onto Hybond-XL membrane. Membranes were probed with either an α-^32P-UTP (800 Ci/mmol, Perkin Elmer) labeled hepadnaviral minus (detecting DNA) or plus strand (detecting RNA) specific full-length riboprobe and exposed to a phosphorimager screen (Fuji Film, Tokyo, Japan). Hybridization signals were visualized by Typhoon FLA-7000 (GE Healthcare) and quantified with ImageQuantTL software (GE Healthcare). […]
Identification of compounds that inhibits cccDNA accumulation in HepDES19 cells: Compounds were tested on HepDES19 cells, which have a higher level of cccDNA production than HepDE19 cells (Guo, H., D. Jiang, T. Zhou, A. Cuconati, T. M. Block, and J. T. Guo. 2007). Briefly, after withdrawal of tetracycline, HepDES19 cells were left untreated, or were treated with compound at serial concentrations; tetracycline-free media was changed every other day with fresh compound supplementation. The concentration of DMSO in all experimental groups was normalized at 0.1%. The cells were harvested at day 12, viral RNA (top panel), core DNA (middle panel), and Hirt DNA (DP-rcDNA and cccDNA) (bottom panels) were extracted and analyzed by Northern blot and Southern blot, respectively. Shorter exposure of the Hirt DNA blot was used for the quantitative determination of DP-rcDNA signals. […] The reduction between DP-rcDNA and cccDNA was proportional compared with untreated control. […] Liu, C. P. Hu, and C. Chang. 2005. Guo, H., T. Zhou, D. Jiang, A. Cuconati, G. H. Xiao, T. M. Block, and J. T. Guo. 2007. Zhou, T., H. Guo, J. T. Guo, A. Cuconati, A. Mehta, and T. M. Block. 2006).

HBV polymerase = molecular target: T1, HBV polymerase (Hepatitis B virus genotype D subtype ayw, UniProt P03156); assay: endogenous DNA polymerase reaction (EPR); assay type: biochemical; conditions: for HBV polymerase activity: in vitro endogenous polymerase reaction, HBV virions from HepDE19 culture fluid
T1 construct: HBV virion stock (˜5×10^7 genome equivalents) concentrated from the supernatant of HepDE19 cells cultured in tetracycline-free medium; expressed in transfected cells; host or cells: HepDE19 cells (HBV-producing line, tetracycline-off); virions concentrated from the supernatant
Method: Endogenous DNA polymerase reaction (EPR): The EPR was performed as previously described with modifications (Guo, H., R. Mao, T. M. Block, and J. T. Guo. 2010). Briefly, EPR mixture was assembled with 10 μl of HBV virion stock (˜5×10^7 genome equivalents) concentrated from the supernatant of HepDE19 cells cultured in tetracycline-free medium (Guo, H., D. Jiang, T. Zhou, A. Cuconati, T. M. Block, and J. T. Guo. 2007, plus 15 μl of 2×EPR buffer which consisted of 0.3 M NaCl, 0.1 M Tris-HCl (pH 8.0), 20 mM MgCl2, 2 mM dithiothreitol, 0.2% (vol/vol) Nonidet P-40, 0.2 mM each of dATP/dGTP/dTTP, and 10 μM α-^32P-dCTP. Compounds were added as indicated and water was supplemented to bring the reaction volume to 30 μl. As a positive control, 0.2 mM of dGTP in the 2×EPR buffer was replaced with 0.2 mM ddGTP. After incubation at 37° C. for 1 hours, the reaction solution was dotted on Whatman 3M filter (Millipore, Billerica, Mass.) and subjected to rinse with 10% trichloride acid for 30 min at room temperature, followed by 3 times of wash with 95% ethanol, 5 min each. The radioactivity (counts of per minute, CPM) of acid insoluble ^32P was counted with a liquid scintillation counter (PerkinElmer, Waltham, Mass.).

T1 sequence (P03156 whole entry): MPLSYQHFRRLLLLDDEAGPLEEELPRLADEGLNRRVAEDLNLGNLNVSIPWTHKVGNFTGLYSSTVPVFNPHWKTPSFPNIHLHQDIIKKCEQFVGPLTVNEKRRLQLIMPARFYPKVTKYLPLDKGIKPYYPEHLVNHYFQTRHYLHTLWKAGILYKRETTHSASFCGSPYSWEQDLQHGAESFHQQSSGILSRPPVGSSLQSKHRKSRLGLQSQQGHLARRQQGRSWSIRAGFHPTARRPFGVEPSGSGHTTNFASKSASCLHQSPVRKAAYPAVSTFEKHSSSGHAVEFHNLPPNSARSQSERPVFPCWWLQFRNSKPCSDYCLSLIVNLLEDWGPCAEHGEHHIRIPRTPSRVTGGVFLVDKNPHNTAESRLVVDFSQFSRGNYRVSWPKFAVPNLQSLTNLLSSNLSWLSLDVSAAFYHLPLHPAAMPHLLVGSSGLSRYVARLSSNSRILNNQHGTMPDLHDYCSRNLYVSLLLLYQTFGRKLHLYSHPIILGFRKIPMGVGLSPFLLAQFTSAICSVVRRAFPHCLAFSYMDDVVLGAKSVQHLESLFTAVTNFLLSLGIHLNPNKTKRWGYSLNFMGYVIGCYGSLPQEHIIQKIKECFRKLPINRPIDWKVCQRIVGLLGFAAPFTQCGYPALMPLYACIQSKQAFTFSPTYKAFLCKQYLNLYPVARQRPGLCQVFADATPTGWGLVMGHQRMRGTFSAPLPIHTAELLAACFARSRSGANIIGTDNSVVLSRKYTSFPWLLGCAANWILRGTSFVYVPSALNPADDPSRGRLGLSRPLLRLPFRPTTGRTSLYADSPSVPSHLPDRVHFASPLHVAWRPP

O=C(CN(c1cc(C(F)(F)F)ccc1Cl)S(=O)(=O)c1ccccc1)NCc1ccncc1 [CCC-0975, 2-[Benzenesulfonyl-(2-chloro-5-trifluoromethyl-phenyl)-amino]-N-pyridin-4-ylmethyl-acetamide]
stability of HBV Dp-rcDNA and cccDNA (HBV Dp-rcDNA and cccDNA): did not alter
cccDNA inhibition % Reduction (HBV cccDNA; Concentration 1 μM, 1 µM): 10%
cccDNA inhibition % Reduction (HBV cccDNA; Concentration 3 μM, 3 µM): 20%
cccDNA inhibition % Reduction (HBV cccDNA; Concentration 10 μM, 10 µM): 70%
levels of HBV cccDNA and DP-rcDNA in cell cultures (HBV cccDNA): reduces
EC50 (HBV cccDNA; Hepatitis B virus): 10 µM
HBV polymerase activity (HBV polymerase; listed as 2-[Benzenesulfonyl-(2-chloro-5-trifluoromethyl-phenyl)-amino]-N-pyridin-4-ylmeth): does not inhibit
HBV polymerase activity (HBV polymerase; listed as 2-[benzenesulfonyl-(2-chloro-5-trifluoromethyl-phenyl)-amino]-N-pyridin-4-ylmeth): did not inhibit

Cc1nc2cc(NC(=O)c3ccc(S(=O)(=O)N(C)Cc4ccccc4)cc3)ccc2s1 [CCC-0346, 4-(Benzyl-methyl-sulfamoyl)-N-(2-methyl-benzothiazol-5-yl)-benzamide]
stability of HBV Dp-rcDNA and cccDNA (HBV Dp-rcDNA and cccDNA): did not alter
levels of HBV cccDNA and DP-rcDNA in cell cultures (HBV cccDNA): reduces
EC50 (HBV cccDNA; Hepatitis B virus): 3 µM
inhibition at 0.3 µM (HBV cccDNA; Hepatitis B virus, Concentration 0.3 μM, read-out: cccDNA inhibition % Reduction): 20%
inhibition at 1 µM (HBV cccDNA; Hepatitis B virus, Concentration 1 μM, read-out: cccDNA inhibition % Reduction): 30%
inhibition at 3 µM (HBV cccDNA; Hepatitis B virus, Concentration 3 μM, read-out: cccDNA inhibition % Reduction): 60%
viral polymerase activity (HBV polymerase; endogenous polymerase reaction, compound at 3 μM): does not inhibit
HBV polymerase activity (HBV polymerase): did not inhibit
